Assay [1] is described as follows: Inhibition of Wnt reporter activity in human SW480 cells by cell based assay. It counts as functional.
Assay [2] is described as follows: Inhibition of Wnt reporter activity in human HeLa cells by cell based assay.
The target in the next assay is T1, TCF4-CTNNB1 complex (Homo sapiens, UniProt P35222).
T1 sequence (P35222 whole entry): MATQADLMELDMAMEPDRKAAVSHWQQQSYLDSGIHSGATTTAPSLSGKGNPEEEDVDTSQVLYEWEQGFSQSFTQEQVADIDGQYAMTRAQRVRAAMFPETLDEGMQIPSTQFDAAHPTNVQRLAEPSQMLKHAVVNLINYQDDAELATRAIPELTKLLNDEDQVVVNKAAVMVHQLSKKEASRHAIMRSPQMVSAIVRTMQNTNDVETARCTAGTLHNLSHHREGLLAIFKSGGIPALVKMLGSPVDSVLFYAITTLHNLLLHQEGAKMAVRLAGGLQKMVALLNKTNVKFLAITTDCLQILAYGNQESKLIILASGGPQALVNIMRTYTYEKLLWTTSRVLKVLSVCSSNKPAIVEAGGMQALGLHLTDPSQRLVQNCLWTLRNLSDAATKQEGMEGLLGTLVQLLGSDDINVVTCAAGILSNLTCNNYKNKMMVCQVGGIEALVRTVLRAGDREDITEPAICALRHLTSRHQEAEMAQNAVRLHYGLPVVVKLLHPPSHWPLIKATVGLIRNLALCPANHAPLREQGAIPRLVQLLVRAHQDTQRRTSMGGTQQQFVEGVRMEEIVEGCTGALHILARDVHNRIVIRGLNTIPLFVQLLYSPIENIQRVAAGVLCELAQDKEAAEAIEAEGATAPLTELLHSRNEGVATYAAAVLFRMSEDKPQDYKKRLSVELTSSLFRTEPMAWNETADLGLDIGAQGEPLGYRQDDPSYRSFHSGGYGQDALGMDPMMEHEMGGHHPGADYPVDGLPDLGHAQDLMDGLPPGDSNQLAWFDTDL
T1 sequence (P15884 whole entry): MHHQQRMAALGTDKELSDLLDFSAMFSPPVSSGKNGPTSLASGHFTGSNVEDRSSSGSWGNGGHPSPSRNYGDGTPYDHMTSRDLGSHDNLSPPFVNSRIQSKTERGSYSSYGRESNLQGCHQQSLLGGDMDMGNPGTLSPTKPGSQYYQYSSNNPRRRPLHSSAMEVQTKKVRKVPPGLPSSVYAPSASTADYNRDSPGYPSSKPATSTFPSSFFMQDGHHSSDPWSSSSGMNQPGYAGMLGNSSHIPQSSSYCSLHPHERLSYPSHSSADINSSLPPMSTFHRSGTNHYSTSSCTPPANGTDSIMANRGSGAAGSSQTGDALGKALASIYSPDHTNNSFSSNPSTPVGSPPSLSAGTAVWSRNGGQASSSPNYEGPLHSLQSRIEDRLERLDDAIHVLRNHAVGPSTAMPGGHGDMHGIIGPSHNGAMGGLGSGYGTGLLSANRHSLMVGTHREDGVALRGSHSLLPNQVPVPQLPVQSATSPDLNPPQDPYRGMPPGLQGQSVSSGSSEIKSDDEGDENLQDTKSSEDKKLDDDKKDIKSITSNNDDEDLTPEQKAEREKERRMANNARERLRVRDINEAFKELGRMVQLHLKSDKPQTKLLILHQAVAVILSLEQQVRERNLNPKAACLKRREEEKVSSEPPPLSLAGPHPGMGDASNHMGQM
Nature of the assay: Inhibition of His-tagged beta-catenin (134 to 668 residues)/CM-5 sensor chip immobilized N-terminal GST-tagged TCF4 interaction (unknown origin) preincubated with beta-catenin for 15 mins followed by TCF4 addition measured after 60 secs by SPR analysis. It counts as protein-complex assay.

Assay [3] can be described thus: Antiproliferative activity against human LNCaP-abl cells assessed as inhibition of cell proliferation incubated for 5 days by Cell Titer-Fluor assay. The class given is functional, cell-based. Particulars: 120 h.
Assay [4] can be described thus: Antiproliferative activity against human LNCaP-95 cells assessed as inhibition of cell proliferation incubated for 5 days by Cell Titer-Fluor assay. It counts as functional, cell-based. The note with it: LNCaP-95, 120 h.

Starred links: 1 amine or outer side, 2 acyl side, 3 side chain; linkers in the order of their positions; H or OH if unused. Positions of bridges follow the written chain, without caps; N, C: chain ends. Non-standard residues stand in square brackets, D forms with d. Residues, ends and D or L forms follow the SMILES beside them. X1 = C(=C\[*:2])/CC[*:1]; βAla = NCCC(=O)O

Turning to `CCOC(=O)C[C@@H](NC(=O)[C@@H](Cc1ccc2ccccc2c1)NC(=O)Cc1cc2cc(Cl)ccc2[nH]1)C(=O)N[C@H](CC(=O)OCC)C(=O)OC`, in assay [1], the 50% inhibitory concentration (IC50) worked out at 29 µM. With `CC(C)C[C@@H]1NC(=O)[C@H](CC(C)C)NC(=O)[C@H](CO)NC(=O)[C@H](CC(=O)O)NC(=O)[C@@H]2CCCN2C(=O)[C@@H]2CCCN2C(=O)[C@H](C(C)C)NC(=O)[C@H](CC(=O)O)NC(=O)[C@H](CC(N)=O)NC(=O)[C@H](CCCNC(=N)N)NC(=O)[C@@H]2CS/C=C/CCSC[C@H](NC1=O)C(=O)N[C@@H](Cc1ccccc1)C(=O)NCCC(=O)NCCC(=O)N[C@@H](C(C)C)C(=O)N2` (cyclo(CF[βAla][βAla]VCRNDVPPDSLL); linker 1-6 via X1), the half-maximal inhibitory concentration (IC50) in assay [2] turned out to be 8 µM. Regarding `CCc1ccc(OCc2nnc(SC3CCCC3=O)n2C(C)c2ccccc2)cc1` (stereo not given), at TCF4-CTNNB1 complex, the half-inhibitory concentration (IC50) is 24 µM. Consider `COc1cc(OC)cc(N2CC(=O)N(CCCOC(C)C)CC(=O)N(C(C)c3ccc(O)cc3)CC(=O)N(C(C)c3ccc(O)cc3)CC(=O)N[C@H](C)C(=O)N(CCc3ccccc3Oc3ccccc3)CC2=O)c1` (stereo not given in full), for which the results for the IC50 in assay [3] and in assay [4] were 0.2 µM and 0.8 µM, respectively.

For orientation: IC50 means the midpoint of a concentration-inhibition curve.

The values are drawn from ChEMBL document CHEMBL5104134, “Targeting the interaction of β-catenin and TCF/LEF transcription factors to inhibit oncogenic Wnt signaling” (Bioorg Med Chem, 2022).
